Data as given in ChEMBL document CHEMBL5661943, “ASAP - In vitro antiviral effect” (2024).

Experiments:
[1] = system: dengue virus type 2; test: Functional assay to measure dose dependent changes in antiviral-drug inhibitory efficacy against Dengue virus type 2 New Guinea C in Vero E6 miRFP670 cells (cotreated with P-gp inhibitor, CP100356). Cells are treated with antiviral candidates that are serially diluted, following infection, cells are fixed. EC50 is reported via analysis of fluorescence intensity using high-content imager. The …; format: organism-based, Chlorocebus sabaeus, Vero C1008; conditions: Dengue virus
[2] = system: Zika virus; test: Functional CPE-based assay to measure dose dependent changes in antiviral-drug inhibitory efficacy against Zika virus MR766 in Vero E6 miRFP670 cells (cotreated with P-gp inhibitor, CP100356). Cells are treated with antiviral candidates that are serially diluted. EC50 is reported via analysis of MTS assay as a readout of CPE. The assay has been performed by KU Leuven.; format: organism-based, Chlorocebus sabaeus, Vero C1008; conditions: Zika virus; for EC90: P-gp concentration 500 nM, P-gp inhibitor CP100356

SMILES | EC50 ([1]; Vero C1008) | EC50 ([2]; Vero C1008) | also measured
C=C1C[C@H](c2cc(Cl)cc(NC(=O)OCc3ccccc3)c2)[C@@H](c2cccc(-c3nn[nH]n3)c2)C1 | > 6.25 µM |  | EC90 ([1]; Vero C1008, Maximum measured 124.641 %, Minimum measured 90.066 %, P-gp concentration 500 nM, P-gp inhibitor CP100356): > 6.25 µM
O=C(Nc1cc(Cl)cc([C@H](C#CCO)Nc2ccc(-c3nn[nH]n3)cc2)c1)OCc1ccccc1 | > 50 µM |  | EC90 ([1]; Vero C1008, Maximum measured 120.318 %, Minimum measured 85.942 %, P-gp concentration 500 nM, P-gp inhibitor CP100356): > 50 µM
NCc1ccc([C@H]2C[C@@H]2c2cc(Cl)cc(NC(=O)OCc3ccccc3)c2)cc1 | 2.72 µM |  | EC90 ([1]; Vero C1008, Baseline response 0 %, Hill slope -3.689, Maximum measured 118.529 %, Maximum response 100 %, Minimum measured 38.173 %, P-gp concentration 500 nM, R squared 0.774, P-gp inhibitor CP100356): > 3.12 µM
CN(C)C(=O)c1cc(CN)cc([C@@H]2C[C@H]2c2cc(Cl)cc(NC(=O)OCc3ccccc3)c2)c1 | 2 µM |  | EC90 ([1]; Vero C1008, Baseline response 0 %, Hill slope -4.597, Maximum measured 117.075 %, Maximum response 100 %, Minimum measured 13.909 %, P-gp concentration 500 nM, R squared 0.926, P-gp inhibitor CP100356): > 3.12 µM
O=C(Nc1ccc2c(c1)CNC2)c1cc(Cl)cc2[nH]c(-c3cccc(F)c3)nc12 |  | > 50 µM | EC90 ([2]; Vero C1008, Baseline response 0 %, Hill slope 0.814, Maximum measured 40.434 %, Maximum response 100 %, Minimum measured 0.118 %, R squared 0.904): > 50 µM
C=CC[C@H](Nc1cccc(-c2nn[nH]n2)c1)c1cc(Cl)cc(NC(=O)OCc2ccccc2)c1 | < 0.391 µM |  | EC90 ([1]; Vero C1008, Baseline response 0 %, EC90 CI (lower) 0.009 uM, EC90 CI (upper) 0.062 uM, Hill slope -1.268, Maximum measured 19.733 %, Maximum response 100 %, Minimum measured 0.468 %, P-gp concentration 500 nM, R squared 0.944, P-gp inhibitor CP100356): 0.74 µM
COc1ccc(S(=O)(=O)Nc2cc(F)c(Cl)cc2C(=O)NCC(C)C)cc1 | 5.86 µM |  | EC90 ([1]; Vero C1008): 6.67 µM
O=C(Nc1ccc2c(c1)CNC2)c1cc(Cl)cc2[nH]c(-c3ccccc3)nc12 |  | > 50 µM | EC90 ([2]; Vero C1008, Baseline response 0 %, Hill slope 1.72, Maximum measured 10.819 %, Maximum response 100 %, Minimum measured -5.769 %, R squared 0.199): > 50 µM
CNC(=O)[C@H](Nc1cc(Cl)cc(NC(=O)OCc2ccccc2)c1)c1cccc(CN)c1 | 7.19 µM |  | EC90 ([1]; Vero C1008, Baseline response 0 %, EC90 CI (lower) 3.139 uM, EC90 CI (upper) 9.78 uM, Hill slope -8.413, Maximum measured 116.634 %, Maximum response 100 %, Minimum measured 2.553 %, P-gp concentration 500 nM, R squared 0.885, P-gp inhibitor CP100356): 9.34 µM
C=CC[C@H](Nc1cc(Cl)cc(NC(=O)OCc2ccccc2)c1)c1cccc(CN)c1 | 0.546 µM |  | EC90 ([1]; Vero C1008, Baseline response 0 %, EC90 CI (lower) 0.029 uM, EC90 CI (upper) 0.719 uM, Hill slope -1.654, Maximum measured 56.301 %, Maximum response 100 %, Minimum measured 0.945 %, P-gp concentration 500 nM, R squared 0.693, P-gp inhibitor CP100356): 2.06 µM
C[C@H]1NCc2cc(NC(=O)c3cc(F)cc4[nH]ncc34)ccc21 |  | > 50 µM | EC90 ([2]; Vero C1008, Baseline response 0 %, Hill slope 1.233, Maximum measured 13.741 %, Maximum response 100 %, Minimum measured -1.755 %, R squared 0.661): > 50 µM
O=C(Nc1cc(Cl)cc(C(=O)Nc2ccc([C@@H]3C[C@H]3C(=O)O)cc2)c1)OCc1ccccc1 | > 50 µM |  | EC90 ([1]; Vero C1008, Maximum measured 124.209 %, Minimum measured 92.524 %, P-gp concentration 500 nM, P-gp inhibitor CP100356): > 50 µM
CC1(C)NCc2cc(NC(=O)c3cc(F)cc4[nH]ncc34)ccc21 |  | > 50 µM | EC90 ([2]; Vero C1008, Maximum measured -0.426 %, Minimum measured -7.479 %): > 50 µM
O=C(O)Cn1ncc2cc(-c3cc(Cl)cc(NC(=O)OCc4ccccc4)c3)ccc21 | > 50 µM |  | EC90 ([1]; Vero C1008, Maximum measured 125.945 %, Minimum measured 96.066 %, P-gp concentration 500 nM, P-gp inhibitor CP100356): > 50 µM
O=C(Nc1ccc2c(c1)CNC2)c1cc(Cl)cc(N2CCCC2)c1 |  | > 50 µM | EC90 ([2]; Vero C1008, Maximum measured 3.676 %, Minimum measured -16.143 %): > 50 µM
NCc1ccc2c(c1)[C@H]1OCCC[C@H]1[C@H](c1cc(Cl)cc(NC(=O)OCc3ccccc3)c1)N2 | 1.9 µM |  | EC90 ([1]; Vero C1008, Baseline response 0 %, EC90 CI (lower) 1.087 uM, EC90 CI (upper) 1.673 uM, Hill slope -6.376, Maximum measured 104.423 %, Maximum response 100 %, Minimum measured 0.619 %, P-gp concentration 500 nM, R squared 0.968, P-gp inhibitor CP100356): 2.69 µM
